{"source": "patent US20040162247A1", "about": "“Therapeutic agent or osteoporosis comprising an active ingredient of quercetin derivatives” (priority 2000, published 2004)", "key": {"mice": {"system": "mice", "details": "orally administered, M. Sullivan et al. 1951; cited from earlier work"}, "osteoclasts": {"system": "osteoclasts", "assay": "Osteoclast proliferation, count of TRAP-positive multinucleated cells", "type": "cell-based, ICR mice", "details": "for Number of osteoclast (% of control group): day 2, TRAP staining", "protocol": "ICR mice (Korea Research Institute of Chemical Technology, Taejon, Korea) were fed with calcium deficient diet (ICN Biomedicals, Inc., Ohio, U.S.A.) for 4 weeks to activate osteoclasts. The right and left tibiae and femurs of the calcium […] were removed avoiding contamination of surrounding muscle tissues. Femurs and right and left tibiae, classified on the clean bench and kept on ice separately, were added into the α-MEM containing 100 μg/ml streptomycin and then vigorously shaken respectively to extract osteoclasts into the medium. After kept on ice for 5 minutes, the cell suspension was centrifuged at 800×g for 3 minutes and the cell pellet was resuspended in a α-MEM nutrient medium supplemented with 10% FBS, 100 μg/ml streptomycin and 100 unit/ml penicillin. The cell suspension was distributed into wells of a 24-well plate at a cell number of 3.5×10^6/well. To the osteoclasts obtained in Example 2-1 above, quercetin was added to yield concentrations of 1×10^−8 to 1×10^−2 mg/ml. On day 2, the cells were subjected to tartrate-resistant acid phosphatase (TRAP) staining using a commercially available kit (Sigma Chemical Co., U.S.A.), followed by counting of osteoclasts which are TRAP-positive multinucleated cells (MNC), judged by more than three nuclei in a cell stained red (see: Table 2)."}, "[1]": {"details": "rat, in vivo", "procedure": "(§1) Female SD (Sprague-Dawley) rats, a model animal for type I osteoporosis occurring after menopause were employed for evaluating pharmacological effectiveness of quercetin. Female rats (10 weeks old) weighing 200 to 300 g, obtained from the Korea Research Institute of Chemical Technology were employed as experimental animals. Experiment was carried out by the procedure which comprises removing ovary, administration of agents to the each group of rats, and at certain days after ovariectomy, the rats were sacrificed and subjected to analyses including measurement of body weight, examination of internal organs, measurement of trabecular bone area, complete blood count, and biochemical analyses of plasma.\n(§2) The Sham group, animals operated upon for the surgery as in the ovariectomized rats except for removing ovary, were employed to compare the changes caused solely by ovariectomy in control group which were ovariectomized but no agent was administered. Control group was employed to compare the changes caused by administration of agents in test group which were ovariectomized and administered with testing agents.\n(§3) During the period of administration, blood was sampled once a week. After 9-week administration, entire blood was withdrawn with heparin treatment. Following complete blood count (CBC), the blood was centrifuged at 3,000 rpm for 20 minutes to obtain plasma which was stored at −70° C. until use. For measurement of bone mineral density, the lumbar spine L5 and L6, and right tibia were removed and stored separately in 4% (v/v) formalin solution."}, "ovariectomized rats": {"system": "ovariectomized rats", "assay": "Wet weight of internal organs of ovariectomized rats after drug administration", "details": "OVX rats", "protocol": "To find out quercetin effect on internal organ of test animal, liver, kidney, brain, uterus, skin, and tibia were removed from the test animals administered with test agents for 9 weeks after operation and wet weight of each organ was measured (see: Table 4)."}, "[2]": {"assay": "Body weight of ovariectomized rats during drug administration", "procedure": "as §1, §2, §3"}, "[3]": {"details": "9 weeks i.p. (E2 1 μg/kg/day; quercetin, genistein 10 mg/kg/day)"}}, "note": "Where “and” joins values, the source holds several entries; their conditions need not be identical. Equal entries are not always repeated. Where two headings read alike, the source gives them in different places.", "data": [{"smiles": "O=c1c(O)c(-c2ccc(O)c(O)c2)oc2cc(O)cc(O)c12", "note": "[Quercetin, quercetin]", "values": [{"measurement": "LD50", "setting": "mice", "value": "not less than 160 mg/kg"}, {"measurement": "Inhibitory effect on the osteoclast proliferation (in words)", "setting": "osteoclasts; 1×10^−8 to 1×10^−4 mg/ml", "value": "little inhibitory effect"}, {"measurement": "Number of osteoclast (% of control group)", "setting": "osteoclasts; 1 × 10^−2 mg/ml", "value": "25 % of control group and 24.7 ± 5.7 % of control group"}, {"measurement": "Number of osteoclast (% of control group)", "setting": "osteoclasts; 1 × 10^−3 mg/ml", "value": "61 % of control group and 61.1 ± 4.1 % of control group"}, {"measurement": "Number of osteoclast (% of control group)", "setting": "osteoclasts; 1 × 10^−4 mg/ml", "value": "89.6 ± 3.2 % of control group"}, {"measurement": "Number of osteoclast (% of control group)", "setting": "osteoclasts; 1 × 10^−6 mg/ml", "value": "96.8 ± 2.7 % of control group"}, {"measurement": "Number of osteoclast (% of control group)", "setting": "osteoclasts; 1 × 10^−8 mg/ml", "value": "100.9 ± 1.8 % of control group"}, {"measurement": "Weight", "setting": "[1]", "value": "221.87 ± 7.57", "unit": "g"}]}, {"smiles": "O=c1c(-c2ccc(O)cc2)coc2cc(O)cc(O)c12", "note": "[Genistein, genistein]", "values": [{"measurement": "Brain wet weight", "setting": "ovariectomized rats; [3]", "value": "1.98 ± 0.03", "unit": "g"}, {"measurement": "Kidney wet weight", "setting": "ovariectomized rats; [3]", "value": "1.83 ± 0.03", "unit": "g"}, {"measurement": "Liver wet weight", "setting": "ovariectomized rats; [3]", "value": "10.03 ± 0.36", "unit": "g"}, {"measurement": "Skin wet weight", "setting": "ovariectomized rats; [3]", "value": "188 ± 9", "unit": "mg"}, {"measurement": "Tibia wet weight", "setting": "ovariectomized rats; [3]", "value": "0.537 ± 0.008", "unit": "g"}, {"measurement": "Uterus wet weight", "setting": "ovariectomized rats; [3]", "value": "106 ± 3", "unit": "mg"}, {"measurement": "Effect on weight of uterus / uterine hypertrophy (in words)", "setting": "ovariectomized rats; 9 weeks i.p., compared with control group", "value": "did not give rise to change in weight of uterus"}, {"measurement": "Weight", "setting": "[2]; OVX rats, 1 week after operation (start of administration)", "value": "242.12 ± 5.96", "unit": "g"}, {"measurement": "Body weight increase after ovariectomy (in words)", "setting": "[2]; OVX rats, compared with control group, E2 1 μg/kg/day, quercetin or genistein 10 mg/kg/day", "value": "rapid increase of body weight"}, {"measurement": "Weight", "setting": "[2]; OVX rats, i.p. from 1 week after operation (E2 1 μg/kg/day; quercetin, genistein 10 mg/kg/day), 2 weeks after operation", "value": "270.00 ± 8.05", "unit": "g"}, {"measurement": "Weight", "setting": "[2]; OVX rats, i.p. from 1 week after operation (E2 1 μg/kg/day; quercetin, genistein 10 mg/kg/day), 3 weeks after operation", "value": "296.20 ± 7.68", "unit": "g"}, {"measurement": "Weight", "setting": "[2]; OVX rats, i.p. from 1 week after operation (E2 1 μg/kg/day; quercetin, genistein 10 mg/kg/day), 4 weeks after operation", "value": "310.80 ± 7.80", "unit": "g"}, {"measurement": "Weight", "setting": "[2]; OVX rats, i.p. from 1 week after operation (E2 1 μg/kg/day; quercetin, genistein 10 mg/kg/day), 5 weeks after operation", "value": "317.29 ± 7.93", "unit": "g"}, {"measurement": "Weight", "setting": "[2]; OVX rats, i.p. from 1 week after operation (E2 1 μg/kg/day; quercetin, genistein 10 mg/kg/day), 6 weeks after operation", "value": "327.19 ± 8.31", "unit": "g"}, {"measurement": "Weight", "setting": "[2]; OVX rats, i.p. from 1 week after operation (E2 1 μg/kg/day; quercetin, genistein 10 mg/kg/day), 7 weeks after operation", "value": "332.80 ± 9.23", "unit": "g"}, {"measurement": "Weight", "setting": "[2]; OVX rats, i.p. from 1 week after operation (E2 1 μg/kg/day; quercetin, genistein 10 mg/kg/day), 8 weeks after operation", "value": "336.38 ± 9.01", "unit": "g"}, {"measurement": "Weight", "setting": "[2]; OVX rats, i.p. from 1 week after operation (E2 1 μg/kg/day; quercetin, genistein 10 mg/kg/day), 9 weeks after operation", "value": "342.71 ± 8.26", "unit": "g"}, {"measurement": "Weight", "setting": "[2]; OVX rats, i.p. from 1 week after operation (E2 1 μg/kg/day; quercetin, genistein 10 mg/kg/day), 10 weeks after operation", "value": "347.23 ± 7.57", "unit": "g"}, {"measurement": "Weight", "setting": "[2]; before operation (baseline, before administration)", "value": "217.55 ± 7.24", "unit": "g"}]}]}
